According to article PMC11946679 (Toxics, 2025):

Columns and labels:
human lymphocytes = system: human lymphocytes; parameters: method as in PMID 27461151; conditions: galangin at 10-20,000 μmol/L; cited from earlier work
[1] = system: human peripheral blood lymphocytes; test: CBMN cytome assay: micronuclei, nuclear buds, nucleoplasmic bridges; conditions: 3 h
Experimental: The CBMN assay was performed in line with standard protocols [8, 23].
To collect the blood sample, lithium heparin-coated tubes were used (BD vacutainer® with LH 170 I.U., Becton Dickinson: BD-Plymouth PL6 78P, UK).
There were 15 experimental groups altogether. The same experimental design was applied in two independent trials, each of which had two replicate cultures per experimental group; therefore, four replicate cultures for every single experimental group were established.
To induce cell division prior to exposure to the test chemicals, lymphocytes were stimulated with the mitogen phytohemagglutinin (PHA). Cultures were kept in a humidified atmosphere of 5% CO2 at 37 °C.
They started 41 h after PHA stimulation and lasted for 3 h at 37 °C.
Upon completion of exposure, lymphocyte cultures were centrifuged at 100× g. […] This procedure was timed for the 44th hour of lymphocyte cultivation, which represents a critical point for adding of cytoB to hinder cytokinesis and obtain binucleated cells. All treated and control cultures were further maintained at 37 °C until the end of the 72nd hour of cultivation, according to the above-mentioned standard protocols.
The first step in the preparation of microscopic slides was harvesting of cells by centrifugation (100× g), followed by treatment with 0.075 mol/L potassium chloride and succeeded by centrifugation. The sediments of cells were repeatedly fixed with methanol/acetic acid (3:1 v/v) followed by centrifugation. The final lymphocyte suspension was pipetted onto clean microscope slides. For staining, 5% aqueous solution of Giemsa dye was used. Slides were screened using a light microscope at 1000× magnification. For morphological discrimination of micronuclei (MNi), nuclear buds (NBs), nucleoplasmic bridges (NPBs) and cells in apoptosis or necrosis, the criteria by Fenech et al. [25] and Fenech [23] were applied. To determine their frequencies, per experimental point, a total of 4 × 1000 binucleated (BN) cells were scored.
This value was first used to estimate the number of MNi required to reach a decrease and an increase considered significant at a 5% significance level.

[2] = 1× + IRI 9.0 mg/L, propolis 1.36 mg/L, galangin 0.02 mg/L
[3] = 1× alone, propolis 1.36 mg/L, galangin 0.02 mg/L
[4] = 5× + IRI 9.0 mg/L, propolis 6.8 mg/L, galangin […]
[5] = 5× alone, propolis 6.8 mg/L, galangin […]

## O=c1c(O)c(-c2ccccc2)oc2cc(O)cc(O)c12 [Galangin]
Human lymphocytes
  genotoxicity: not genotoxic per se
[1]; [2]
  Distribution of BNMN Cells with 1 MN: 45 c,p1,p5,p10,g1,g5,g10,p1+iri, p5+iri, p10+iri
  Distribution of BNMN Cells with 2 MN: 1
  Distribution of BNMN Cells with 3 MN: 0
  Distribution of BNMN Cells with 4 MN: 0
  Distribution of BNNB Cells with 1 NB: 33 c,p1,p5, p10,g1,g5,g10, p1+iri, p10+iri
  Distribution of BNNB Cells with 2 NB: 2
  Distribution of BNNPB Cells with 1 NPB: 0
  Distribution of BNNPB Cells with 2 NPB: 0
  Micronuclei (MNi) Mean (BNMN)1000 ± SD: 11.50 ± 3.70 c,p1,p5,p10,g1,g5, g10,p1+iri, p5+iri, p10+iri
  Micronuclei (MNi) Mean (MNi)1000 ± SD: 11.75 ± 4.11 c,p1,p5,p10,g1,g5,g10, p1+iri
  Micronuclei (MNi) Total (BNMN)4000: 46 c,p1,p5,p10,g1,g5,g10, p1+iri, p5+iri, p10+iri
  Micronuclei (MNi) Total (MNi)4000: 47 c,p1,p5,p10,g1,g5, g10,p1+iri
  Nuclear Buds (NBs) Mean (BNNB)1000 ± SD: 8.75 ± 0.96 c,p1,p5,p10, g1,g5,g10, p1+iri,p5+iri, p10+iri
  Nuclear Buds (NBs) Mean (NBs)1000 ± SD: 9.25 ± 1.50 c,p1,p5,p10,g1,g5,g10, p1+iri,p5+iri, p10+iri
  Nuclear Buds (NBs) Total (BNNB)4000: 35 c,p1,p5,p10, g1,g5,g10, p1+iri,p5+iri,p10+iri
  Nuclear Buds (NBs) Total (NBs)4000: 37 c,p1,p5, p10,g1,g5, g10, p1+iri, p5+iri, p10+iri
  Nucleoplasmic Bridges (NPBs) Mean (BNNPB)1000 ± SD: 0
  Nucleoplasmic Bridges (NPBs) Mean (NPBs)1000 ± SD: 0
  Nucleoplasmic Bridges (NPBs) Total (BNNPB)4000: 0
  Nucleoplasmic Bridges (NPBs) Total (NPBs)4000: 0
[1]; 1× + IRI 9.0 mg/L, propolis 1.36 mg/L, galangin 0.02 mg/L, listed as galangin
  Micronuclei (MNi) Mean (MNi)1000 ± SD: 11.75
[1]; [3]
  Distribution of BNMN Cells with 1 MN: 8
  Distribution of BNMN Cells with 2 MN: 0
  Distribution of BNMN Cells with 3 MN: 0
  Distribution of BNMN Cells with 4 MN: 0
  Distribution of BNNB Cells with 1 NB: 7
  Distribution of BNNB Cells with 2 NB: 0
  Distribution of BNNPB Cells with 1 NPB: 0
  Distribution of BNNPB Cells with 2 NPB: 0
  Micronuclei (MNi) Mean (BNMN)1000 ± SD: 2.00 ± 0.82
  Micronuclei (MNi) Mean (MNi)1000 ± SD: 2.00 ± 0.82
  Micronuclei (MNi) Total (BNMN)4000: 8
  Micronuclei (MNi) Total (MNi)4000: 8
  Nuclear Buds (NBs) Mean (BNNB)1000 ± SD: 1.75 ± 0.50
  Nuclear Buds (NBs) Mean (NBs)1000 ± SD: 1.75 ± 0.50
  Nuclear Buds (NBs) Total (BNNB)4000: 7
  Nuclear Buds (NBs) Total (NBs)4000: 7
  Nucleoplasmic Bridges (NPBs) Mean (BNNPB)1000 ± SD: 0
  Nucleoplasmic Bridges (NPBs) Mean (NPBs)1000 ± SD: 0
  Nucleoplasmic Bridges (NPBs) Total (BNNPB)4000: 0
  Nucleoplasmic Bridges (NPBs) Total (NPBs)4000: 0
[1]; 1× alone, propolis 1.36 mg/L, galangin 0.02 mg/L, listed as galangin
  Micronuclei (MNi) Mean (MNi)1000 ± SD: 2.00
[1]; [4]
  Distribution of BNMN Cells with 1 MN: 43 c,p1,p5, p10,g1,g5, g10,p1+iri, p5+iri, p10+iri
  Distribution of BNMN Cells with 2 MN: 1
  Distribution of BNMN Cells with 3 MN: 0
  Distribution of BNMN Cells with 4 MN: 0
  Distribution of BNNB Cells with 1 NB: 32 c,p1,p5, p10,g1, g5,g10, p1+iri, p10+iri
  Distribution of BNNB Cells with 2 NB: 0
  Distribution of BNNPB Cells with 1 NPB: 0
  Distribution of BNNPB Cells with 2 NPB: 0
  Micronuclei (MNi) Mean (BNMN)1000 ± SD: 11.00 ± 0.82 c,p1,p5,p10,g1,g5, g10,p1+iri, p5+iri
  Micronuclei (MNi) Mean (MNi)1000 ± SD: 11.25 ± 0.96 c,p1,p5,p10,g1,g5,g10, p1+iri
  Micronuclei (MNi) Total (BNMN)4000: 44 c,p1,p5,p10,g1,g5,g10, p1+iri, p5+iri
  Micronuclei (MNi) Total (MNi)4000: 45 c,p1,p5,p10,g1,g5, g10,p1+iri
  Nuclear Buds (NBs) Mean (BNNB)1000 ± SD: 8.00 ± 1.41 c,p1,p5,p10, g1,g5,g10, p1+iri,p10+iri
  Nuclear Buds (NBs) Mean (NBs)1000 ± SD: 8.00 ± 1.41 c,p1,p5,p10,g1,g5,g10, p1+iri,p10+iri
  Nuclear Buds (NBs) Total (BNNB)4000: 32 c,p1,p5,p10, g1,g5,g10, p1+iri, p10+iri
  Nuclear Buds (NBs) Total (NBs)4000: 32 c,p1,p5, p10,g1,g5, g10, p1+iri, p10+iri
  Nucleoplasmic Bridges (NPBs) Mean (BNNPB)1000 ± SD: 0
  Nucleoplasmic Bridges (NPBs) Mean (NPBs)1000 ± SD: 0
  Nucleoplasmic Bridges (NPBs) Total (BNNPB)4000: 0
  Nucleoplasmic Bridges (NPBs) Total (NPBs)4000: 0
[1]; 5× + IRI 9.0 mg/L, propolis 6.8 mg/L, galangin […], listed as galangin
  Micronuclei (MNi) Mean (MNi)1000 ± SD: 11.25
[1]; [5]
  Distribution of BNMN Cells with 1 MN: 9
  Distribution of BNMN Cells with 2 MN: 0
  Distribution of BNMN Cells with 3 MN: 0
  Distribution of BNMN Cells with 4 MN: 0
  Distribution of BNNB Cells with 1 NB: 9
  Distribution of BNNB Cells with 2 NB: 0
  Distribution of BNNPB Cells with 1 NPB: 0
  Distribution of BNNPB Cells with 2 NPB: 0
  Micronuclei (MNi) Mean (BNMN)1000 ± SD: 2.25 ± 0.50
  Micronuclei (MNi) Mean (MNi)1000 ± SD: 2.25 ± 0.50
  Micronuclei (MNi) Total (BNMN)4000: 9
  Micronuclei (MNi) Total (MNi)4000: 9
  Nuclear Buds (NBs) Mean (BNNB)1000 ± SD: 2.25 ± 0.96
  Nuclear Buds (NBs) Mean (NBs)1000 ± SD: 2.25 ± 0.96
  Nuclear Buds (NBs) Total (BNNB)4000: 9
  Nuclear Buds (NBs) Total (NBs)4000: 9
  Nucleoplasmic Bridges (NPBs) Mean (BNNPB)1000 ± SD: 0
